# Target: WWP1 (Homo sapiens, UniProt Q9H0M0)
# Test: STD NMR binding, WWP1
# Conditions: 500 μM ligand, 20 μM protein
# Method: Given the similarities between WWP1 and WWP2 HECT domains, we speculated that the relatively low sensitivity of DSF may not be able to detect weak WWP2-I3C interactions and therefore opted to investigate further using STD NMR. STD NMR is a versatile ligand-based NMR approach, relying on selective saturation of the protein. This saturation is transferred to the ligand when and if the ligand binds, causing a reduction of the signal intensities. The STD intensities are calculated as the difference of the reference spectra (where selective saturation is off) minus the irradiated spectra, and they are proportional to the vicinity of the protein surface. […]
# An Amicon centrifuge filter unit with a 10 kDa MW cutoff was used to exchange the protein in 25 mM d19-2,2-bis(hydroxymethyl)-2,2′,2″-nitrilotriethanol, 100 mM NaCl and 1.0 mM DTT buffer pH* 8.9 (uncorrected for the deuterium isotope effect on the pH glass electrode) in D2O. […] All the NMR experiments were performed on a Bruker Avance 800.23 MHz at 278 K. Binding epitope mappings were obtained by determining the initial slopes (STD0) calculated by performing a least-squares fitting of the following monoexponential curve: [drawing 1] where STD(tsat) is the STD intensity for a saturation time, tsat, STDmax is the maximum STD intensity and ksat is the rate constant for saturation transfer. […]
# Chain of WWP1 (Q9H0M0 546-922 limits assumed): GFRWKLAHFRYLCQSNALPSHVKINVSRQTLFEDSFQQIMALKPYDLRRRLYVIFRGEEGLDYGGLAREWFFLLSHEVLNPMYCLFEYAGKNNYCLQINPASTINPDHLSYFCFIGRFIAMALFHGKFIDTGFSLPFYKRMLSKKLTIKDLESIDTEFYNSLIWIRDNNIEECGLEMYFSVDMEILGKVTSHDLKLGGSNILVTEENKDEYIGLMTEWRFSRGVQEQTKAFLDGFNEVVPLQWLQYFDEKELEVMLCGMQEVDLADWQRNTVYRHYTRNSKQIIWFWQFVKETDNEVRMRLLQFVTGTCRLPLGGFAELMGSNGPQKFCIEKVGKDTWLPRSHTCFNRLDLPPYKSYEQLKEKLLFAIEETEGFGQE
smiles,measurement,value
"OCc1c[nH]c2ccccc12 [Compound I3C, Indole-3-carbinol, reference compound]","STD intensities, WWP1-I3C complex",~30%

# Source: article PMC11840788, “3,3′-Diindolylmethane (DIM): A Molecular Scaffold for Inhibition of WWP1 and WWP2, Members of the NEDD4 Family HECT E3 Ligases” (ACS Omega, 2025)
